# Key:
# HLMs = test: Kinetics of N-hydap glucuronidation in HLMs; format: in vitro ADME, human; details: HLM
# Description: Various microsomes including HLMs, HKMs, HIMs, RLMs, RKMs, MLMs and MKMs were involved in CYP and UGT reactions of N-hydap. A typical CYP incubation mixture included 0.5 mg/mL microsomes protein, 3.3 mM glucose-6-phosphate, 3.3 mM MgCl2, 0.4 U/mL glucose-6-phosphate dehydrogenase, and N-hydap (1, 2.5, or 10 μM) in the 50 mM potassium phosphate buffer (KPI, pH 7.4). The incubation mixture was preincubated at 37 °C for 5 min, and the reaction was started by adding NADP to form a NADPH-regenerating system. Simultaneously, the classic UGT reaction system consisted of 50 mM KPI, 5 mM MgCl2, 0.5 mg/mL microsomes, 0.125 mg/mL alamethicin, and 5.25 mg/mL saccharolactone. The reaction was initiated after supplying UDPGA. The CYP and UGT mixtures were incubated at 37 °C in a shaking water bath (80 rpm) for 1.5 h to enhance metabolite formation. To terminate the reaction, an ice-cold solution of Tes (50 ng/mL, dissolved in methanol and used as an internal standard) was added to half of the mixture volume. […]
# (§1) The substrate concentrations used for HLMs were 0.05, 0.5, 2, 2.5, 5, 10, 25, 50, and 100 μM. […] The rates of N-hydap-G by enzymes were expressed as nmol/mg/min, representing the amount of metabolites formed per minute per milligram of protein. Kinetic parameters were determined by analyzing the Eadie–Hofstee plots. […]
# RKMs = test: Kinetics of N-hydap glucuronidation in RKMs; format: in vitro ADME, rat; details: RKM
# Description: In this study, the rats were executed by drawing blood from the abdominal aorta and mice were sacrificed with cervical dislocation before the liver and kidneys were excised. The liver and kidneys were removed, and washed with chilled cleansing solution (contains 8 mM KH2PO4, 5.6 mM EDTA·K2·2H2O, 1 mM DTT and 229.6 μM PMSF), homogenized in a tissue homogenate buffer with a pH of 7.4, (consisting of […], 8 mM K2HPO4, 250 mM sucrose, 1 mM EDTA·K2·2H2O and 229.6 μM PMSF). Subsequently, the homogenate was centrifuged at 10,400 rpm at 4 °C for 15 min, and the supernatant was then centrifuged at 35,000 rpm at 4 °C for 60 min. A 250 mM sucrose buffer was added to the pellet to reconstitute and the resuspension was stored at − 80 °C until use. Microsome protein concentrations were measured by Omni-Easy™ Instant BCA Protein Assay Kit.
# Various microsomes including HLMs, HKMs, HIMs, RLMs, RKMs, MLMs and MKMs were involved in CYP and UGT reactions of N-hydap. […]
# as §1
# Cyp1a2 = test: Real-time PCR mRNA level after 7 days gavage: Cyp1a2; format: in vivo; details: mice, 2, 5, 10 mg/kg p.o. 7 days; kidneys
# Description: Mice were randomly divided into four groups, with eight animals in each group. The mice received oral pretreatment with N-hydap for 7 days at doses of 2, 5, and 10 mg/kg/day, which were considered as the low dose, medium dose, and high dose, respectively. Correspondingly, the control group received PBS. On the 8th day, the liver and kidneys were removed, and organs from eight mice per group were combined to prepare MLMs and MKMs using the detailed procedures above. Subsequently, we determined the activity of CYP and UGT enzymes by specific substrate metabolized with MLMs (0.5 mg/mL) and MKMs (0.2 mg/mL) in vitro. […] In the ex vivo experiments, the activity of enzymes was measured by quantifying the production of various metabolites (nM/mg protein/min). […] The measurements were performed using multiple reaction monitoring (MRM) transitions, which are specific mass spectrometry transitions used for quantification. […]
# Total RNA from liver and kidney samples taken after 7 days of N-hydap gavage was extracted using the Animal Total RNA Isolation Kit (Foregene, Chengdu, Sichuan, China) following the manufacturer’s instructions. The concentrations of total RNA were determined by a nucleic acid concentration tester at 260/280 nm. […]
smiles,measurement,setting,value
"CC1CCC2C(C=CC(C)C2C(=O)c2c(O)c(C3(O)CCC(O)C4OC43)cn(O)c2=O)C1 (stereo not drawn) [N-hydap, N-Hydroxyapiosporamide]",Km,HLMs,116 µM
same,Km,RKMs,125 µM
same,decrease of mRNA levels of Cyp1a2,Cyp1a2,48%

# Reference: PMC11109052, “Metabolism characterization and toxicity of N-hydap, a marine candidate drug for lung cancer therapy by LC–MS method” (Natural Products and Bioprospecting, 2024)
